{"source": "patent US8637237B2", "about": "“Methods, compositions, and systems for the identification of species-specific or developmental stage-specific insecticides” (The University of North Carolina at Greensboro, priority 2003, dated 2014)", "target": "T1, GRdEcR/RXR (Drosophila melanogaster, UniProt P34021, E261P/P331L/Q260P/V259R)", "T1 construct": "ligation of a Not I-Bam HI fragment containing the DBD and LBD of a modified EcR cDNA, EcRnx; expressed in transfected cells; host or cells: CHO", "T1 sequence (P34021 259-878 V259R/Q260P/E261P/P331L limits assumed)": "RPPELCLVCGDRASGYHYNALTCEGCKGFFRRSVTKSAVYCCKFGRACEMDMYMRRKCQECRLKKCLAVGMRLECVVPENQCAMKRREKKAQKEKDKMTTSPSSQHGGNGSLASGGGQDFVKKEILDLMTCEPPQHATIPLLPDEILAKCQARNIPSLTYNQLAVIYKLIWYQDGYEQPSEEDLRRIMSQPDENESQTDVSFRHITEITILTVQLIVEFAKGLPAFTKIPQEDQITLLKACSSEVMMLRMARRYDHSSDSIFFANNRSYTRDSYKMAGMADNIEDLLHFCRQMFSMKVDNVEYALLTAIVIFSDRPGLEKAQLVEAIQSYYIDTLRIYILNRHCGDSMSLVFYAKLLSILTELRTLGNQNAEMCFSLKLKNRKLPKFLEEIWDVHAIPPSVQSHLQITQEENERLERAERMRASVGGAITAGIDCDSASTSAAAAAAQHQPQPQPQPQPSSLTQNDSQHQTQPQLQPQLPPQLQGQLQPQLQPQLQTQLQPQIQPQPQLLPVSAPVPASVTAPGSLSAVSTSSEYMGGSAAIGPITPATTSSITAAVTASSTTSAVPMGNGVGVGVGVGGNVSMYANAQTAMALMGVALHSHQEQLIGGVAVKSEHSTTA", "T1 sequence (P28700 1-467 partner)": "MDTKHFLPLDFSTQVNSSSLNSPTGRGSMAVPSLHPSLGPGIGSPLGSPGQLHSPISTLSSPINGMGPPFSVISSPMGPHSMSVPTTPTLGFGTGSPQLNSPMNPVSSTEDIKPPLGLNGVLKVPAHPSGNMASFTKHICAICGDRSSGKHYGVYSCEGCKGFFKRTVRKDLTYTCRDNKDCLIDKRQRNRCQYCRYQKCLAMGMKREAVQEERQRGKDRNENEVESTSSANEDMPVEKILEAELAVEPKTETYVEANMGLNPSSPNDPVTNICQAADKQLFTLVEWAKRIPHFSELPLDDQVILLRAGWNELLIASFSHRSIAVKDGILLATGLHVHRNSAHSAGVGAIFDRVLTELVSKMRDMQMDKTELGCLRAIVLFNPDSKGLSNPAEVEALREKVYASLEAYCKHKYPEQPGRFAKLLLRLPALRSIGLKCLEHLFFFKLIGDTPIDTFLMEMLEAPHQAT", "assay": "GRdEcR (GEcEc) chimera with RXR, (EcRE)5-ΔMTV reporter in CHO cells", "assay_type": "cell-based", "protocol": "These experiments employed a mammalian cell culture system using Chinese hamster ovary cells (CHO) to evaluate the transcriptional function of Drosophila melanogaster EcR and USP using methods described previously (U.S. Patent Application Publication No: 2005/0049230; Henrich et al, 2003). Cells were seeded in 6-well polypropylene culture plates (Falcon) with 10^5 cells per well on the day prior to transfection. Transfection was subsequently performed using either calcium phosphate (Kitareewan et al., 1996, Mol. Biol. Cell, 7:1153-1196) or a GenePorter reagent (Gene Therapy Systems, Inc; San Diego, Calif.) following manufacturer's protocols. Each well received 1.25 μg of (EcRE)5-ΔMTV-CAT (five copies of the hsp27 EcRE inserted into an mouse mammary tumor virus (MTV) promoter upstream of the chloramphenicol acetyltransferase (CAT) gene) or (EcRE)5-ΔMTV-LUC (the same promoter attached to firefly luciferase), 1.25 μg of pCH111 (SV40 early promoter linked to the β-galactosidase gene) to normalize CAT activity, and 0.25 μg of each expression plasmid (EcR, FXR, RXR, USP) that was tested. The cells were incubated with plasmid DNA for seven hours and then washed with 1×PBS. Muristerone A (murA; Alexis Biochemicals) or 20-hydroxyecdysone (20E; Sigma) dissolved in ethanol to a concentration of 10 mM was diluted as necessary to the final assay concentration (FAC) in 2 ml of fresh incubation medium that was then applied to the cells. Similarly, JHIII (Sigma) was dissolved in dimethyl sulfoxide (DMSO) to a concentration of […] and diluted into the incubation medium to its final assay concentration (20, 40, 80, 160 μM). […] A corresponding volume of ethanol and DMSO were added to control cells for all experiments. For all experiments, the cells were allowed to incubate with the medium for 24 hours before collection and cell lysates were prepared by described methods (Kitareewan et al., 1996). Both β-galactosidase and CAT reporter activity were measured based on previously used methods (Kitareewan et al, 1996). Luciferase assays using luciferrin followed the specifications of the manufacturer.\nTranscriptional activity, measured as ^14C-chloramphenicol counts (for measuring CAT activity) or relative luciferase activity (RLU) was quantified for each cell lysate. The counts were then normalized by adjusting for differences in β-galactosidase activity, since β-galactosidase expression is controlled by a constitutive promoter and provides an estimate of cell mass. Data were normalized as fold-induction based on differences in reporter gene activity between hormonally treated and control cells.\nIn an initial series of studies, a GRdEcR chimera that consists of the rat glucocorticoid receptor (GR) activation domain attached to the EcR DBD and LBD (FIG. 1) was cotransfected along with mRXRα into CHO cells. The response of transfected cells to murA was measured using a (EcRE)5-ΔMTV-CAT reporter plasmid that carries five tandem repeats of the hsp27 EcRE linked to the MTV (mouse mammary tumor virus) promoter and the chloramphenicol acetyltransferase gene (CAT).\nThe prominent candidate for this JH-responsive macromolecule in insects is the structurally-related ecdysone receptor (EcR). Like FXR, EcR heterodimerizes with RXR and binds to the hsp27 ecdysone-responsive DNA element (Forman et al., 1995), but distinctively activates transcription in response to muristerone A (MurA or MUR), a synthetic ecdysone (Yao et al., 1992). […] In the experiments shown in FIG. 15A, muristerone A (MUR) was added at the indicated doses in ethanol vehicle, and increasing amounts of JH III (12, 25, or 50 μM) were added (underlying triangles). Numbers over bars indicate the ratio of the GEcEc-dependent activity produced by 50 μM JH III in the presence of the indicated dose of MUR to the activity produced by MUR alone. Relative light units (RLU) from firefly luciferase in cell lysates are expressed relative to renilla luciferase (Promega).", "data": [{"compound": "COC(=O)/C=C(\\C)CC/C=C(\\C)CC[C@H]1OC1(C)C", "note": "[JHIII, juvenile hormone III]", "values": [{"measurement": "increase of MurA-induced GEcEc-dependent activity by JH III", "setting": "80 μM JH III added to MurA", "result": 3, "unit": "times"}, {"measurement": "response of GEcEc to JH III alone", "setting": "80 μM JH III, no MurA", "result": "failed to respond"}, {"measurement": "potentiation of murA response by JHIII", "setting": "20, 40, 80, 160 μM JHIII at submaximal murA (0.1 μM and 1 μM)", "result": "potentiated the response of murA in a dose-dependent manner"}, {"measurement": "MurA + JHIII (JHIII potentiation)", "setting": "GRdEcR/RXR, 0.1 μM murA + 80 μM JHIII", "result": "+ ((+) indicates observed potentiation that exceeds 2-fold above the levels observed with ecdysteroid alone)"}, {"measurement": "effect of JHIII alone on transcription", "setting": "no murA", "result": "did not show an effect"}]}, {"compound": "CC(C)CC[C@@H](O)[C@](C)(O)[C@H]1CC[C@@]2(O)C3=CC(=O)[C@]4(O)C[C@@H](O)[C@@H](O)C[C@]4(C)[C@H]3[C@H](O)C[C@]12C", "note": "[murA, muristerone A]", "values": [{"measurement": "lowest murA dosage evoking a detectable response", "setting": "GRdEcR + RXR, CAT reporter", "result": 0.1, "unit": "µM"}, {"measurement": "MurA (inducibility)", "setting": "GRdEcR/RXR, 0.1 μM murA", "result": "+ ((+) designates a change in transcriptional level that exceeds 2.5-fold)"}]}, {"compound": "juvocimene", "values": [{"measurement": "potentiation of MUR-inducible GEcEc-dependent activity", "setting": "25 μM test compound, 0.2 μM muristerone A", "result": "between two and four times"}]}]}
